# Data: PubChem BioAssay AID2060496 (Molecular Pharmacology Branch, DTP, NCI, 2025)
# System: 276233-004-R-J1-PDC complex spheroid viability
# Assay: Anticancer human tumor 276233-004-R-J1-PDC patient-derived colon adenocarcinoma cell line growth inhibition [GQUAD]
# Settings: for IC50: curve of first compound; for viability, T/C: stronger effect = lower value
# Method in brief: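 Viability of tumor cells grown as complex spheroids with endothelial and stromal cells, exposed to drug combinations. Top concentration at or near clinical Cmax (else 10 microM), diluted in half-log increments.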
# [1] = second compound 0.0316 µM, first compound 0.0316 µM
# [2] = second compound 0.0316 µM, first compound 0.1 µM
# [3] = second compound 0.0316 µM, first compound 0.316 µM
# [4] = second compound 0.0316 µM, first compound 1 µM
# [5] = second compound 0.0316 µM, first compound 3.16 µM
# [6] = second compound 0.0316 µM, first compound 10 µM
# [7] = second compound 0.1 µM, first compound 0.0316 µM
# [8] = second compound 0.1 µM, first compound 0.1 µM
# [9] = second compound 0.1 µM, first compound 0.316 µM
# [10] = second compound 0.1 µM, first compound 1 µM
# [11] = second compound 0.1 µM, first compound 3.16 µM
# [12] = second compound 0.1 µM, first compound 10 µM
# [13] = second compound 0.316 µM, first compound 0.0316 µM
# [14] = second compound 0.316 µM, first compound 0.1 µM
# [15] = second compound 0.316 µM, first compound 0.316 µM
# [16] = second compound 0.316 µM, first compound 1 µM
# [17] = second compound 0.316 µM, first compound 3.16 µM
# [18] = second compound 0.316 µM, first compound 10 µM
# [19] = second compound 1 µM, first compound 0.0316 µM
# [20] = second compound 1 µM, first compound 0.1 µM
# [21] = second compound 1 µM, first compound 0.316 µM
# [22] = second compound 1 µM, first compound 1 µM
# [23] = second compound 1 µM, first compound 3.16 µM
# [24] = second compound 1 µM, first compound 10 µM
# [25] = second compound 3.16 µM, first compound 0.0316 µM
# [26] = second compound 3.16 µM, first compound 0.1 µM
# [27] = second compound 3.16 µM, first compound 0.316 µM
# [28] = second compound 3.16 µM, first compound 1 µM
# [29] = second compound 3.16 µM, first compound 3.16 µM
# [30] = second compound 3.16 µM, first compound 10 µM
# [31] = second compound 10 µM, first compound 0.0316 µM
# [32] = second compound 10 µM, first compound 0.1 µM
# [33] = second compound 10 µM, first compound 0.316 µM
# [34] = second compound 10 µM, first compound 1 µM
# [35] = second compound 10 µM, first compound 3.16 µM
# [36] = second compound 10 µM, first compound 10 µM
# 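Also: spheroids exposed to drugs for seven days.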
# 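For viability, T/C in this document: 100% = DMSO vehicle control viability.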
compound,measurement,setting,value
COc1ncnc(C2CC2)c1-c1ncc2cnn(Cc3ccc(-c4nc(C(F)(F)F)cn4C(C)C)cc3)c2n1 + CN(C)c1ccc(Nc2c3ccc(NC(=O)CCN4CCCC4)cc3nc3cc(NC(=O)CCN4CCCC4)ccc23)cc1,IC50,second compound 0.0316 µM,> 10 µM
same,IC50,second compound 0.1 µM,> 10 µM
same,IC50,second compound 0.316 µM,> 10 µM
same,IC50,second compound 1 µM,0.0316 µM
same,IC50,second compound 3.16 µM,< 0.0316 µM
same,IC50,second compound 10 µM,< 0.0316 µM
same,"viability, T/C",[1],87.4%
same,"viability, T/C",[2],84.2%
same,"viability, T/C",[3],74.3%
same,"viability, T/C",[4],75.6%
same,"viability, T/C",[5],68.8%
same,"viability, T/C",[6],100%
same,"viability, T/C",[7],70.4%
same,"viability, T/C",[8],90.2%
same,"viability, T/C",[9],77.5%
same,"viability, T/C",[10],75.8%
same,"viability, T/C",[11],58.6%
same,"viability, T/C",[12],65.8%
same,"viability, T/C",[13],69.4%
same,"viability, T/C",[14],72.7%
same,"viability, T/C",[15],59.9%
same,"viability, T/C",[16],44%
same,"viability, T/C",[17],69.4%
same,"viability, T/C",[18],72.5%
same,"viability, T/C",[19],57.3%
same,"viability, T/C",[20],49.6%
same,"viability, T/C",[21],51.4%
same,"viability, T/C",[22],47%
same,"viability, T/C",[23],65.3%
same,"viability, T/C",[24],68.5%
same,"viability, T/C",[25],53.2%
same,"viability, T/C",[26],35.7%
same,"viability, T/C",[27],53.1%
same,"viability, T/C",[28],49.5%
same,"viability, T/C",[29],56.7%
same,"viability, T/C",[30],57.6%
same,"viability, T/C",[31],35.6%
same,"viability, T/C",[32],41.8%
same,"viability, T/C",[33],36.7%
same,"viability, T/C",[34],38.4%
same,"viability, T/C",[35],58.4%
same,"viability, T/C",[36],53.5%
COc1cccc2c1C(=O)c1c(O)c3c(c(O)c1C2=O)CC(O)(C(=O)CO)CC3OC1CC(N)C(O)C(C)O1 (centres undefined) + CN(C)c1ccc(Nc2c3ccc(NC(=O)CCN4CCCC4)cc3nc3cc(NC(=O)CCN4CCCC4)ccc23)cc1,IC50,second compound 0.0316 µM,> 10 µM
same,IC50,second compound 0.1 µM,> 10 µM
same,IC50,second compound 0.316 µM,> 10 µM
same,IC50,second compound 1 µM,> 10 µM
same,IC50,second compound 3.16 µM,< 0.0316 µM
same,IC50,second compound 10 µM,> 10 µM
same,"viability, T/C",[1],88%
same,"viability, T/C",[2],94.7%
same,"viability, T/C",[3],77.5%
same,"viability, T/C",[4],61.7%
same,"viability, T/C",[5],43%
same,"viability, T/C",[6],66.7%
same,"viability, T/C",[7],102%
same,"viability, T/C",[8],83.8%
same,"viability, T/C",[9],72.8%
same,"viability, T/C",[10],74.8%
same,"viability, T/C",[11],60.6%
same,"viability, T/C",[12],76.7%
same,"viability, T/C",[13],80.6%
same,"viability, T/C",[14],68.4%
same,"viability, T/C",[15],67.9%
same,"viability, T/C",[16],40.8%
same,"viability, T/C",[17],63.1%
same,"viability, T/C",[18],54.4%
same,"viability, T/C",[19],55.8%
same,"viability, T/C",[20],47%
same,"viability, T/C",[21],53.2%
same,"viability, T/C",[22],52.3%
same,"viability, T/C",[23],63.5%
same,"viability, T/C",[24],52.8%
same,"viability, T/C",[25],49.6%
same,"viability, T/C",[26],49.3%
same,"viability, T/C",[27],56.8%
same,"viability, T/C",[28],56.4%
same,"viability, T/C",[29],59.4%
same,"viability, T/C",[30],53.7%
same,"viability, T/C",[31],48.6%
same,"viability, T/C",[32],51.5%
same,"viability, T/C",[33],55.7%
same,"viability, T/C",[34],62.6%
same,"viability, T/C",[35],50.5%
same,"viability, T/C",[36],43.5%
